Measurements published in PubChem BioAssay (NCI).
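Test compounds were applied to cells in 96-well plates for 48 hours at 5 doses. TGI: concentration producing complete growth inhibition.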

How the values were obtained:
Assay in all cases: NCI anticancer screen, dose series, 48 h
[1] = system: 786-0 renal
[2] = system: A498 renal
[3] = system: A549 NSCLC
[4] = system: ACHN renal
[5] = system: CAKI-1 renal
[6] = system: CCRF-CEM leukemia
[7] = system: COLO 205 colon
[8] = system: DLD-1 colon
[9] = system: DMS 114 small cell lung
[10] = system: DMS 273 small cell lung
[11] = system: HCC-2998 colon
[12] = system: HCT-116 colon
[13] = system: HCT-15 colon
[14] = system: HL-60(TB) leukemia
[15] = system: HOP-18 NSCLC
[16] = system: HOP-62 NSCLC
[17] = system: HT29 colon
[18] = system: IGROV1 ovarian
[19] = system: K-562 leukemia
[20] = system: KM12 colon
[21] = system: KM20L2 colon
[22] = system: LOX IMVI melanoma
[23] = system: LXFL 529 NSCLC
[24] = system: M14 melanoma
[25] = system: M19-MEL melanoma
[26] = system: MALME-3M melanoma
[27] = system: MOLT-4 leukemia
[28] = system: NCI-H226 lung
[29] = system: NCI-H23 lung
[30] = system: NCI-H460 lung
[31] = system: NCI-H522 lung
[32] = system: OVCAR-3 ovarian
[33] = system: OVCAR-4 ovarian
[34] = system: OVCAR-5 ovarian
[35] = system: OVCAR-8 ovarian
[36] = system: RXF 393 renal
[37] = system: SF-268 CNS
[38] = system: SF-295 CNS
[39] = system: SF-539 CNS
[40] = system: SK-MEL-2 melanoma
[41] = system: SK-MEL-28 melanoma
[42] = system: SK-MEL-5 melanoma
[43] = system: SK-OV-3 ovarian
[44] = system: SN12C renal
[45] = system: SNB-19 CNS
[46] = system: SNB-75 CNS
[47] = system: SNB-78 CNS
[48] = system: SW-620 colon
[49] = system: TK-10 renal
[50] = system: U251 CNS
[51] = system: UACC-257 melanoma
[52] = system: UO-31 renal
[53] = system: HOP-92 NSCLC
[54] = system: RPMI-8226 leukemia
[55] = system: SR leukemia
[56] = system: UACC-62 melanoma
[57] = system: EKVX NSCLC

CC(=O)Nc1ccc(-c2nnc(SCC(=O)Nc3ccc(Cl)cc3Cl)o2)cc1
TGI [1]: 44.3 µM
TGI [2]: > 100 µM
TGI [3]: > 100 µM
TGI [4]: > 100 µM
TGI [5]: > 100 µM
TGI [6]: > 100 µM
TGI [7]: 68.3 µM
TGI [8]: > 100 µM
TGI [9]: 38.7 µM
TGI [10]: > 100 µM
TGI [11]: > 100 µM
TGI [12]: > 100 µM
TGI [13]: > 100 µM
TGI [14]: > 100 µM
TGI [15]: > 100 µM
TGI [16]: > 100 µM
TGI [17]: > 100 µM
TGI [18]: > 100 µM
TGI [19]: > 100 µM
TGI [20]: > 100 µM
TGI [21]: > 100 µM
TGI [22]: > 100 µM
TGI [23]: 54.7 µM
TGI [24]: > 100 µM
TGI [25]: > 100 µM
TGI [26]: 60.3 µM
TGI [27]: > 100 µM
TGI [28]: 99 µM
TGI [29]: > 100 µM
TGI [30]: > 100 µM
TGI [31]: 48.3 µM
TGI [32]: 57.9 µM
TGI [33]: > 100 µM
TGI [34]: > 100 µM
TGI [35]: > 100 µM
TGI [36]: 66.3 µM
TGI [37]: > 100 µM
TGI [38]: > 100 µM
TGI [39]: 84.4 µM
TGI [40]: > 100 µM
TGI [41]: > 100 µM
TGI [42]: 37.4 µM
TGI [43]: > 100 µM
TGI [44]: 57.5 µM
TGI [45]: 51.9 µM
TGI [46]: 96.6 µM
TGI [47]: > 100 µM
TGI [48]: > 100 µM
TGI [49]: > 100 µM
TGI [50]: 38.7 µM
TGI [51]: > 100 µM
TGI [52]: > 100 µM

O=[N+]([O-])c1ccc(C2CC(c3ccc(NCc4nc5ccccc5[nH]4)cc3)=NO2)cc1 (centres undefined)
TGI [1]: > 100 µM
TGI [2]: 73.5 µM
TGI [3]: > 100 µM
TGI [4]: > 100 µM
TGI [5]: > 100 µM
TGI [6]: > 100 µM
TGI [7]: > 100 µM
TGI [8]: > 100 µM
TGI [9]: > 100 µM
TGI [10]: > 100 µM
TGI [11]: > 100 µM
TGI [12]: > 100 µM
TGI [13]: > 100 µM
TGI [14]: > 100 µM
TGI [15]: > 100 µM
TGI [16]: > 100 µM
TGI [53]: > 100 µM
TGI [17]: > 100 µM
TGI [18]: > 100 µM
TGI [19]: > 100 µM
TGI [20]: > 100 µM
TGI [22]: > 100 µM
TGI [23]: 97.9 µM
TGI [24]: > 100 µM
TGI [25]: > 100 µM
TGI [26]: > 100 µM
TGI [27]: > 100 µM
TGI [29]: > 100 µM
TGI [30]: > 100 µM
TGI [31]: > 100 µM
TGI [32]: 57.4 µM
TGI [33]: > 100 µM
TGI [34]: > 100 µM
TGI [35]: > 100 µM
TGI [54]: > 100 µM
TGI [36]: > 100 µM
TGI [37]: > 100 µM
TGI [38]: > 100 µM
TGI [39]: > 100 µM
TGI [40]: > 100 µM
TGI [41]: > 100 µM
TGI [42]: 32.5 µM
TGI [43]: > 100 µM
TGI [44]: > 100 µM
TGI [45]: > 100 µM
TGI [46]: > 100 µM
TGI [55]: > 100 µM
TGI [48]: > 100 µM
TGI [49]: > 100 µM
TGI [50]: > 100 µM
TGI [56]: > 100 µM
TGI [52]: > 100 µM

COc1ccc2c(c1)[n+](=O)c(C(=O)CC(=O)C(=O)Nc1cccc(Cl)c1C)c(C)n2[O-]
TGI [1]: > 100 µM
TGI [2]: > 100 µM
TGI [3]: > 100 µM
TGI [4]: > 100 µM
TGI [5]: > 100 µM
TGI [6]: 71.2 µM
TGI [7]: > 100 µM
TGI [10]: > 100 µM
TGI [57]: > 100 µM
TGI [11]: > 100 µM
TGI [12]: > 100 µM
TGI [13]: > 100 µM
TGI [14]: > 100 µM
TGI [15]: > 100 µM
TGI [16]: > 100 µM
TGI [53]: > 100 µM
TGI [17]: > 100 µM
TGI [18]: > 100 µM
TGI [19]: > 100 µM
TGI [20]: > 100 µM
TGI [21]: > 100 µM
TGI [22]: > 100 µM
TGI [23]: > 100 µM
TGI [24]: > 100 µM
TGI [25]: > 100 µM
TGI [26]: > 100 µM
TGI [27]: > 100 µM
TGI [28]: > 100 µM
TGI [29]: > 100 µM
TGI [30]: > 100 µM
TGI [31]: 58 µM
TGI [32]: 94.7 µM
TGI [33]: > 100 µM
TGI [34]: > 100 µM
TGI [35]: > 100 µM
TGI [54]: > 100 µM
TGI [36]: > 100 µM
TGI [37]: > 100 µM
TGI [38]: > 100 µM
TGI [39]: > 100 µM
TGI [40]: > 100 µM
TGI [41]: > 100 µM
TGI [42]: > 100 µM
TGI [43]: > 100 µM
TGI [44]: > 100 µM
TGI [45]: > 100 µM
TGI [46]: > 100 µM
TGI [47]: > 100 µM
TGI [55]: > 100 µM
TGI [48]: > 100 µM
TGI [49]: > 100 µM
TGI [50]: > 100 µM
TGI [51]: > 100 µM
TGI [56]: > 100 µM
TGI [52]: > 100 µM
